The record followed here is ChEMBL document CHEMBL1212746, “Assessment of the in vitro kinetic activity of caspofungin against Candida glabrata” (2010).

Assay [1] deals with Nakaseomyces glabratus. As to the kind of experiment: Antifungal activity against Candida glabrata assessed as fungicidal activity by broth microdilution assay. The format is functional. (In general: Dilution methods test growth across graded concentrations, often in twofold steps.)
Assay [2] deals with Nakaseomyces glabratus. The assay is described as follows: Antifungal activity against Candida glabrata by broth microdilution assay. The format is functional.
The test system of assay [3] is Nakaseomyces glabratus. As to the kind of experiment: Antifungal activity against fluconazole-susceptible Candida glabrata isolate 03 in presence of fluconazole by broth microdilution assay.
For assay [4], the system named is Nakaseomyces glabratus. The assay is described as follows: Antifungal activity against fluconazole-resistant Candida glabrata isolate 04 by broth microdilution assay. The format is functional.
Assay [5] concerns Nakaseomyces glabratus. As to the kind of experiment: Antifungal activity against fluconazole-resistant Candida glabrata isolate 01 in presence of fluconazole by broth microdilution assay. The format is functional.
Assay [6] relates to Nakaseomyces glabratus. As to the kind of experiment: Antifungal activity against fluconazole-resistant Candida glabrata isolate 02 in presence of voriconazole by broth microdilution assay.
For assay [7], the system named is Nakaseomyces glabratus. As to the kind of experiment: Antifungal activity against fluconazole-resistant Candida glabrata isolate 04 in presence of fluconazole by broth microdilution assay. The format is functional.
In assay [8] the test system is Nakaseomyces glabratus. The assay is described as follows: Antifungal activity against Candida glabrata assessed as time to kill at 1 ug/ml. The format is functional.
The test system of assay [9] is Nakaseomyces glabratus. As to the kind of experiment: Antifungal activity against fluconazole-resistant Candida glabrata isolate 01 by broth microdilution assay. The format is functional.
The subject of assay [10] is Nakaseomyces glabratus. As to the kind of experiment: Antifungal activity against fluconazole-resistant Candida glabrata isolate 02 by broth microdilution assay. Format: functional.
Assay [11] relates to Nakaseomyces glabratus. As to the kind of experiment: Antifungal activity against Candida glabrata assessed as time to kill at 4 ug/ml. The format is functional.
Assay [12] deals with Nakaseomyces glabratus. As to the kind of experiment: Antifungal activity against fluconazole-resistant Candida glabrata isolate 05 in presence of amphotericin B by broth microdilution assay.
Assay [13] concerns Nakaseomyces glabratus. As to the kind of experiment: Antifungal activity against fluconazole-resistant Candida glabrata isolate 05 by broth microdilution assay. The format is functional.
Assay [14] relates to Nakaseomyces glabratus. As to the kind of experiment: Antifungal activity against fluconazole-resistant Candida glabrata isolate 03 by broth microdilution assay. Format: functional.

SMILES strings stand for the structures. Values after ≈ are worked out from the molar mass of the structure shown. Bounds are passed on as bounds.

One may read the MFC as the smallest concentration meeting the test's criterion for killing the fungus. As usually defined, the MIC50 is the lowest concentration that inhibits either 50% of growth or 50% of the strains tested, depending on the study. Low readings indicate higher susceptibility, high ones lower susceptibility. The MIC90 is an inhibitory concentration at the 90% level, which refers to growth in some studies and to a panel of isolates in others. Higher therefore signals lower susceptibility. For orientation: MIC means the smallest concentration in the dilution series that meets the test's criterion for growth inhibition. The low end stands for a more susceptible organism, the high end for a less susceptible organism.

Take `C[C@@H]1[C@H](O)[C@@H](C)/C=C/C=C/C=C/C=C/C=C/C=C/C=C/[C@H](O[C@@H]2O[C@H](C)[C@@H](O)[C@H](N)[C@@H]2O)C[C@@H]2O[C@](O)(C[C@@H](O)C[C@@H](O)[C@H](O)CC[C@@H](O)C[C@@H](O)CC(=O)O[C@H]1C)C[C@H](O)[C@H]2C(=O)O` [AMPHOTERICIN B]: the MFC with Nakaseomyces glabratus [1] amounted to 1 µg/mL. In the assay with Nakaseomyces glabratus [2], this molecule returned an MIC50 of 0.5 µg/mL (≈ 0.541 µM) and an MIC90 of 1 µg/mL (≈ 1.08 µM).

Take `CC[C@H](C)C[C@H](C)CCCCCCCCC(=O)N[C@H]1C[C@@H](O)[C@@H](NCCN)NC(=O)[C@@H]2[C@@H](O)CCN2C(=O)[C@H]([C@H](O)CCN)NC(=O)[C@H]([C@H](O)[C@@H](O)c2ccc(O)cc2)NC(=O)[C@@H]2C[C@@H](O)CN2C(=O)[C@H]([C@@H](C)O)NC1=O` [CASPOFUNGIN]: the “fractional inhibitory concentration index (FICI)” value with Nakaseomyces glabratus [3] is 0.185; in the assay with Nakaseomyces glabratus [5], <0.5; in the assay on Nakaseomyces glabratus [6], 0.56; with Nakaseomyces glabratus [7] it was 0.5625; in the assay on Nakaseomyces glabratus [12] it was 1.06. Besides, the MFC in the assay on Nakaseomyces glabratus [1] is 4 µg/mL. Also, the MIC stood at 0.5 µg/mL (≈ 0.457 µM) in the assay on Nakaseomyces glabratus [4]; 0.5 µg/mL (≈ 0.457 µM) in the assay with Nakaseomyces glabratus [9]; 0.25 µg/mL (≈ 0.229 µM) against Nakaseomyces glabratus [10]; 0.25 µg/mL (≈ 0.229 µM) against Nakaseomyces glabratus [13]; 0.5 µg/mL (≈ 0.457 µM) with Nakaseomyces glabratus [14]. Also, the Time stood at 4 h in the assay on Nakaseomyces glabratus [8] and 2 h in the assay with Nakaseomyces glabratus [11]. In the assay on Nakaseomyces glabratus [2], this molecule yielded an MIC50 of 0.5 µg/mL (≈ 0.457 µM). Further, the MIC90 in the assay with Nakaseomyces glabratus [2] is 2 µg/mL (≈ 1.83 µM).

For `OC(Cn1cncn1)(Cn1cncn1)c1ccc(F)cc1F` [FLUCONAZOLE], the MFC in the assay with Nakaseomyces glabratus [1] is > 128 µg/mL. The MIC in the assay with Nakaseomyces glabratus [4] is 32 µg/mL (≈ 104 µM); with Nakaseomyces glabratus [9], 128 µg/mL (≈ 418 µM); with Nakaseomyces glabratus [10], 64 µg/mL (≈ 209 µM); with Nakaseomyces glabratus [13], 1 µg/mL (≈ 3.27 µM); with Nakaseomyces glabratus [14], 2 µg/mL (≈ 6.53 µM). This molecule also gave an MIC50 against Nakaseomyces glabratus [2] of 4 µg/mL (≈ 13.1 µM). In the assay on Nakaseomyces glabratus [2], this molecule came in with an MIC90 of 32 µg/mL (≈ 104 µM).

On to `C[C@@H](c1ncncc1F)[C@](O)(Cn1cncn1)c1ccc(F)cc1F` [VORICONAZOLE], for which the MFC with Nakaseomyces glabratus [1] was > 32 µg/mL. Besides, in the assay on Nakaseomyces glabratus [2], the MIC50 worked out at 0.125 µg/mL (≈ 0.358 µM) and the MIC90 turned out to be 1 µg/mL (≈ 2.86 µM).
